Assay [1] has as its target T1, human CIC-1 channels (Homo sapiens, UniProt P35523).
T1 construct: host or cells: CHO (Chinese hamster ovary) cells constitutively expressing human ClC-1
Kind of assay: Automated patch-clamp on human CIC-1 expressed in CHO cells: shift of half activation voltage ΔV1/2. Format: cell-based. The note with it: compound in intracellular solution vs control cell patches; CHO cells expressing human CIC-1. Here is the method:
FIGS. 13A-13B: FIG. 13A illustrates the voltage protocol used to evoke currents in whole cell patches of CHO cells expressing human CIC-1 channels.
Experiments were performed using an automated patch clamp system that allowed high throughput testing of whole cell patches together with both intracellular and extracellular addition of compound.
Automated whole cell patch clamp experiments were performed with the Qpatch 16 system (Sophion Bioscience, Ballerup, Denmark) at room temperature. Data acquisition and analysis were performed in the Qassay software (ver. 5.6, Odense).
To evoke CIC-1 currents in whole cell patches, the membrane potential was initially stepped from a holding potential of −30 mV to +60 mV for 100 ms and then to various test voltages (sweeps) ranging from +120 mV to −140 mV in steps of 20 mV for 300 ms. To obtain tail currents, the membrane potential was stepped to −100 mV after each test voltage for 300 ms and then relaxed to −30 mV for 2 sec between sweeps (FIG. 3).
I/V relationships for whole cell instant and steady state current amplitudes were obtained by plotting average current densities at the beginning and at the end of the 300 ms step against the membrane potential (FIG. 4).
In order to determine the relative overall open probability (Po), the instantaneous tail currents were normalized to the maximal tail current obtained following the most positive voltage step and plotted against the test voltage. Plots of normalized tail currents from each whole cell patch were then fitted to a Boltzmann function allowing determination of half activation voltages (V1/2, FIG. 5).
For automated patch clamp experiments extracellular solutions contained: 2 mM CaCl2), 1 mM MgCl2, 10 mM HEPES, 4 mM KCl, 145 mM NaCl, 10 mM Glucose, pH adjusted to 7.4 with NaOH (2 M). Osmolality adjusted to ˜320 using sucrose.
Intracellular solutions contained: 80 mM CsF, 60 mM CsCl, 5/1 mM KOH/EGTA, 10 mM HEPES, 10 mM NaCl, pH adjusted to 7.2 with NaOH (2 M). Osmolality adjusted to ˜320 mOsm using sucrose.
Cells used in patch clamp experiments were Chinese hamster ovary cells (CHO) constitutively expressing human CIC-1 channels. The amino acid sequence encoded by the cDNA used to create this cell line was identical to the translated sequence for GenBank accession number NM_000083.2. Cells were produced by Charles River (Catalogue CT6175, Cleveland OH, USA) in a cryopreserved format. Experiments were performed on the cells directly after thawing (3×10^6 cells used in each experiment).
To evaluate the compound effect on CIC-1, when applied directly to the intracellular side of the cell membrane, the half activation voltage, V1/2, was determined from whole cell patches with compound added to the intracellular solution and then compared to V1/2 determined from control cell patches with only vehicle added to the intracellular solution. Additionally, the effect of extracellular added compound was evaluated by determine V1/2 and steady state current amplitudes before and after exchanging the extracellular solution to contain compound.
The difference in half activation voltage of CIC-1 channels, ΔV1/2, was determined as the difference between the cell patches treated intracellularly with compound and control cells patches and is reported in Table 4 below. A positive shift in ΔV 1/2 is reflecting CIC-1 channel inhibition by the tested compound. P-values of <0.05 is considered significant.

Assay [2] deals with female Lewis rats. Briefly: In situ isometric hindlimb force in anaesthetised rats with neuromuscular transmission partially inhibited by Cisatracurium. Format: in vivo, rat. The note with it: 80 Hz stimulation, Cisatracurium infusion. Here is the method: Isometric hindlimb force was measured in 12-week old female Lewis rats in the presence and absence of compound.
Rats were placed under anesthesia with isoflurane (2-4%), intubated and subsequently connected to a micro ventilator (Microvent 1, Hallowell EMC, US). Two stimulation electrodes were inserted through the skin to stimulate the sciatic nerve. A small incision was made proximal to the ankle, to expose the Achilles tendon, which was tied by cotton string, and connected to a force transducer (Fort250, World Precision Instruments) with adjustable position (Vernier control). The Achilles tendon was then cut distal to the attached cotton string. The rat was placed on a heated pad, and to prevent movement artefacts from contraction of the ankle dorsiflexors, the foot was fixated by tape on a footplate.
Muscle contractile properties were assessed by applying an electrical current (under supramaximal voltage conditions) to the nerve and recording the force generated by the muscle. The muscle was stretched until maximal force was obtained, when assessed by 2 Hz stimulation. Isometric force was measured every 30 seconds at 12 Hz (Twitch), 10 pulses, and at every 5 minutes at 80 Hz (Tetanic) for 1 second (80 pulses). This stimulation pattern was employed throughout the experiment, expect in few cases where 80 Hz stimulation was replaced by 12 Hz (10 pulses). […] When the level of neuromuscular inhibition was stable, the test article was injected i.v. at the chosen concentration. The effect of test article was assessed on its ability to increase force generated from the stimulation pattern applied. The effect was assessed in the ability to increase force per se (tetanic, 80 Hz, stimulation), and the ratio between individual twitch peaks (12 Hz stimulation). The effect was monitored for at least 1 hour after injection of test article. In addition, the time from injection of test article to maximal effect on force (both twitch and tetanic) was noted and the time for the effect to disappear (return to baseline), if possible. When appropriate the infusion of neuromuscular blocking agent was ceased, with the stimulation pattern continued, and the return of force to control levels was monitored. Animals were sacrificed by cervical dislocation while still fully sedated.

Each structure is given as a SMILES string.

T1 sequence (P35523 whole entry): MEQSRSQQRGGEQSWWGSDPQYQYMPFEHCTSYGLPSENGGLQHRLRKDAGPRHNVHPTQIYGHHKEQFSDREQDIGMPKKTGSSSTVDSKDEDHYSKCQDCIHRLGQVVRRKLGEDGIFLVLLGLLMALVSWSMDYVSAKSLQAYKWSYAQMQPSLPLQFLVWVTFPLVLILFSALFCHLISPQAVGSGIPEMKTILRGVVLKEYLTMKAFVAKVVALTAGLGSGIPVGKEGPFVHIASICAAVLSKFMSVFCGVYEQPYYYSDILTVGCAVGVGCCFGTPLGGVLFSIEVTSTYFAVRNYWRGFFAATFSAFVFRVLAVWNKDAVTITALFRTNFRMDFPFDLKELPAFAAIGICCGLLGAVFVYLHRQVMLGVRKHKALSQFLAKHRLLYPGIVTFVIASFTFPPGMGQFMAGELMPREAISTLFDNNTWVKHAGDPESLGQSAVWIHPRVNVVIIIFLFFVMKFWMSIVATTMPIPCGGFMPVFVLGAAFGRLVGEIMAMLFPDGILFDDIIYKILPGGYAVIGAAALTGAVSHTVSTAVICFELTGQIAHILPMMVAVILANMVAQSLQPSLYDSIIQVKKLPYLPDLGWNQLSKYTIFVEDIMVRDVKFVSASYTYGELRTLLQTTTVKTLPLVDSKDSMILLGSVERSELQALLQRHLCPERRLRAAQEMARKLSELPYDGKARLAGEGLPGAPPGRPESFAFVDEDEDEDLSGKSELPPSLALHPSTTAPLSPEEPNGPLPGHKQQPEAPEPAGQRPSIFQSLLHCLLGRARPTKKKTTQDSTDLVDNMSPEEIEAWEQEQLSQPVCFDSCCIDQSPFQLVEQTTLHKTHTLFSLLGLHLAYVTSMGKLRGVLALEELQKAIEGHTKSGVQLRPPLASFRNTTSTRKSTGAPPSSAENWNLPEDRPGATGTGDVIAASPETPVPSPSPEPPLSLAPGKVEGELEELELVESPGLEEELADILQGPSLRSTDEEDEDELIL

For the compound `C[C@H](Oc1ccc(Cl)cc1-c1ccno1)C(=O)O` [Compound A-26, (2S)-2-[4-chloro-2-(1,2-oxazol-5-yl)phenoxy]propanoic acid], the “Δ1/2 (mV)” value in assay [1] is listed as 21 mV. Further, the “average increase in tetanic force” value in assay [2] (40.0 mg/kg i.v.) turned out to be 33.4%.

`O=C(O)[C@H](CF)Oc1ccc(Br)cc1-c1ccon1` [Compound A-31, (2R)-2-[4-bromo-2-(1,2-oxazol-3-yl)phenoxy]-3-fluoropropanoic acid]: the “Δ1/2 (mV)” value in assay [1] worked out at 13.8 mV. In addition, the “average increase in tetanic force” value in assay [2] (40.0 mg/kg i.v.) worked out at 34.1%.

As for `C[C@H](Oc1cc(F)c(Br)cc1-c1ccon1)C(=O)O` [Compound A-44, (2S)-2-[4-bromo-5-fluoro-2-(1,2-oxazol-3-yl)phenoxy]propanoic acid], the “Δ1/2 (mV)” value in assay [1] was found to be 17.7 mV. Moreover, the “average increase in tetanic force” value in assay [2] (24.6 mg/kg i.v.) turned out to be 46.2%.

Regarding `C[C@H](Oc1ccc(Br)cc1-c1csnn1)C(=O)O` [Compound A-59, (2S)-2-[4-bromo-2-(1,2,3-thiadiazol-4-yl)phenoxy]propanoic acid], the “Δ1/2 (mV)” value in assay [1] came to 7.9 mV. Moreover, in assay [2] (49.2 mg/kg i.v.), the “average increase in tetanic force” value is reported as 42.8%.

On to `O=C(O)COc1ccc(Br)cc1-c1ccon1` [Compound A-64, 2-[4-bromo-2-(1,2-oxazol-3-yl)phenoxy]acetic acid], for which, in assay [1], the “Δ1/2 (mV)” value worked out at 11.3 mV. In addition, the “average increase in tetanic force” value in assay [2] (44.8 mg/kg i.v.) was found to be 57.7%.

The values above are taken from patent publication US20260007639A1, “COMPOUNDS FOR THE TREATMENT OF NEUROMUSCULAR DISORDERS” (NMD PHARMA A/S, priority 2017, published 2026).
